Test results reported in patent USRE40862E1, “Gossypolone for the treatment of cancer” (priority 1990, dated 2009).
Where “and” joins values, the source holds several entries; their conditions need not be identical. Identical values can stand only once. Entries after “also recorded” stand apart in the source; their conditions may differ.

Columns and labels:
[1] = tested on: SW-13 cells; assay: In vitro gossypol treatment: SW-13 cell proliferation; format: cell-based, human; details: 5 and 50 uM gossypol, prolonged exposure (1-6 days)
Protocol: SW-13 cells were seeded (1×10^4 cells) into 25 cm^2 tissue culture flasks in Dulbecco's minimal Eagle's medium supplemented with fetal calf serum (10%), 100 ug/ml streptomycin, 100 units/ml penicillin, and 2 mM glutamine.
Sw-13 cells were seeded in a 25-cm^2 tissue culture flask (Costar, Cambridge, Mass.) at densities of 1×10^4 cells/5 ml of Dulbecco's minimal Eagle's medium, supplemented with 10% fetal calf serum, 100 ug/ml streptomycin, 100 units/ml penicillin, and 2 mM glutamine. The cells were grown in a humidified, 37° C. incubator with a 5% CO2/95% air atmosphere. A gossypol stock solution in absolute ethanol was added to the culture medium to yield final concentrations of 0, 0.5, 5, and 50 uM gossypol with a 0.1% final ethanol concentration. After 1, 2, 4, or 6 days of incubation, the culture medium containing a few floating cells was removed. Adherent cells were typsinized (0.1% trypsin, w/v) and counted using a hemocytometer. Cell viability was determined by trypan blue exclusion.

[2] = tested on: SW-13 human adrenocortical carcinoma; assay: Gossypol in SW-13 tumor bearing nude mice (preexisting tumors); format: in vivo; details: for Mean tumor size (mean ± SE): length×width; for Total deaths / Prevalence of tumor: preexisting tumors
Protocol: Nude mice (Charles River, Kingston, N.Y.) weighing 20-35 g were caged in a temperature-controlled (26-28° C.), 12 h/12 h light/dark animal room. A microporous cage bonnet served as an effective protective barrier between the animal and the outside environment. In addition, the room was continuously purged with […]. The cages, feeders, and water bottles were designed to make standard mouse chow and water readily available while minimizing the opportunity for the transfer of communicable pathogens.
Another experiment was designed wherein 48 adult male nude mice weighing 25-35 g were injected s.c. with 2×10^6 SW-13 cells. One month later, the animals were divided into two groups of 24. There were 7 nude mice without visible tumors in each group. The gossypol treated animals received 30 mg gossypol acetic acid/kg body weight/day whereas control animals were fed an equal volume of carrier. Body weigths and tumor sizes (lengths×width, cm^2) were measured weekly. During the 12th week of treatment, 5 control animals died. Since it appeared unlikely that the remaining control animals would survive for another week, they were then sacrificed. Autopsies were performed on all animals including those that died during the study period. Internal organs were examined for the presence of gross tumor.
Data are expressed as the mean±SD unless otherwise indicated. Statistical comparisons were made using an unpaired Student's t test.
In this experiment, nude mice had been given s.c. injections of SW-13 adrenocortical carcinoma 1 month prior to initiation of the treatment with either gossypol or carrier.

[3] = mouse; Rao et al. (1985); cited from earlier work
[4] = tested on: cancers; details: cited from earlier work
[5] = clinical; details: human, in vivo
Protocol: (§1) Gossypol acetic acid, 10 mg compressed tablet, was given orally at a dose of 20 mg/d which was increased by 10 mg/d every three days to a dose of 50 mg/d.

[6] = tested on: metastatic adrenocortical carcinoma; assay: Phase 1 clinical trial of oral gossypol for adrenocortical cancer
Protocol: as §1

[7] = tested on: adrenocortical carcinoma; assay: Previous therapy of the patient with adrenocortical carcinoma; format: in vivo, human; details: person, hepatic metastases, before gossypol
[8] = patient 26, lung, liver, dose 70, 3 weeks
[9] = patient 27, abdomen, pelvis, dose 50, 6 weeks
[10] = patient 34, abdomen, liver, dose 40-50, 12 weeks
[11] = patient 52, abdomen, dose 40, 6 weeks
[12] = person, after three weeks, gossypol acetic acid tablets 20 to 50 mg/d oral

Cc1cc2c(C(C)C)c(O)c(O)c(C=O)c2c(O)c1-c1c(C)cc2c(C(C)C)c(O)c(O)c(C=O)c2c1O [Gossypol, gossypol]
effect on proliferation of SW-13 cells [1]: inhibited cell proliferation | total tumor burden (cumulative surface area), control relative to gossypol group ([2]; 12th week, FIG. 2): twice | effect on body weights ([2]; 12 weeks of gossypol treatment): no significant effect | body weight at the end of the study period (mean ± SD) ([2]; after 12 weeks, 30 mg/kg/day oral): 30.9 ± 3.6 g | number of deaths in the gossypol-treated group ([2]; during 12 weeks of treatment, group of 24, 10 deaths in control group): two | Mean tumor size (mean ± SE) ([2]; week 0, 30 mg/kg/day oral): 0.08 ± 0.02 cm^2 | Total deaths ([2]; week 0, 30 mg/kg/day oral): 0% | Prevalence of tumor ([2]; week 0, 30 mg/kg/day oral, 30 mg/kg/day): 72% | Prevalence of tumor ([2]; week 0, 30 mg/kg/day oral, listed as gossypol, 30 mg/kg/day): 71% | Mean tumor size (mean ± SE) ([2]; week 1, 30 mg/kg/day oral): 0.07 ± 0.02 cm^2 | Prevalence of tumor ([2]; week 1, 30 mg/kg/day oral): 63% | Total deaths ([2]; week 1, 30 mg/kg/day oral): 0% | Mean tumor size (mean ± SE) ([2]; week 2, 30 mg/kg/day oral): 0.12 ± 0.04^a cm^2 | Prevalence of tumor ([2]; week 2, 30 mg/kg/day oral): 50% | Total deaths ([2]; week 2, 30 mg/kg/day oral): 0% | Mean tumor size (mean ± SE) ([2]; week 3, 30 mg/kg/day oral): 0.15 ± 0.05^a cm^2 | Prevalence of tumor ([2]; week 3, 30 mg/kg/day oral): 54% | Total deaths ([2]; week 3, 30 mg/kg/day oral): 0% | Mean tumor size (mean ± SE) ([2]; week 4, 30 mg/kg/day oral): 0.20 ± 0.07^a cm^2 | Prevalence of tumor ([2]; week 4, 30 mg/kg/day oral): 50% | Total deaths ([2]; week 4, 30 mg/kg/day oral): 0% | Mean tumor size (mean ± SE) ([2]; week 5, 30 mg/kg/day oral): 0.28 ± 0.08^a cm^2 | Prevalence of tumor ([2]; week 5, 30 mg/kg/day oral): 58% | Total deaths ([2]; week 5, 30 mg/kg/day oral): 0% | Mean tumor size (mean ± SE) ([2]; week 6, 30 mg/kg/day oral): 0.32 ± 0.10^a cm^2 | Prevalence of tumor ([2]; week 6, 30 mg/kg/day oral): 58% | Total deaths ([2]; week 6, 30 mg/kg/day oral): 0% | Mean tumor size (mean ± SE) ([2]; week 7, 30 mg/kg/day oral): 0.38 ± 0.12^a cm^2 | Prevalence of tumor ([2]; week 7, 30 mg/kg/day oral): 58% | Total deaths ([2]; week 7, 30 mg/kg/day oral): 0% | Mean tumor size (mean ± SE) ([2]; week 8, 30 mg/kg/day oral): 0.45 ± 0.14^a cm^2 | Prevalence of tumor ([2]; week 8, 30 mg/kg/day oral): 58% | Total deaths ([2]; week 8, 30 mg/kg/day oral): 0% | Mean tumor size (mean ± SE) ([2]; week 9, 30 mg/kg/day oral): 0.50 ± 0.15^a cm^2 | Prevalence of tumor ([2]; week 9, 30 mg/kg/day oral): 54% | Total deaths ([2]; week 9, 30 mg/kg/day oral): 0% | Mean tumor size (mean ± SE) ([2]; week 10, 30 mg/kg/day oral): 0.59 ± 0.18^a cm^2 | Prevalence of tumor ([2]; week 10, 30 mg/kg/day oral): 54% | Total deaths ([2]; week 10, 30 mg/kg/day oral): 0% | Mean tumor size (mean ± SE) ([2]; week 11, 30 mg/kg/day oral): 0.68 ± 0.21^a cm^2 | Prevalence of tumor ([2]; week 11, 30 mg/kg/day oral): 54% | Total deaths ([2]; week 11, 30 mg/kg/day oral): 0% | Mean tumor size (mean ± SE) ([2]; week 12, 30 mg/kg/day oral): 0.81 ± 0.25 (n = 22) cm^2 | Prevalence of tumor ([2]; week 12, 30 mg/kg/day oral): 54% | Total deaths ([2]; week 12, 30 mg/kg/day oral): 8.3% | higher doses shown to be lethal [3]: 0.8 mg/mouse and 1.6 mg/mouse | anti-tumor effective dose in animals [4]: ~10 mg/kg/day | concentration at 6 weeks ([5]; female, oral, 40 mg/d): 4.44 ng/mL | concentration at 3 weeks ([5]; male): 10.2 ng/mL | concentration at 12 weeks ([5]; male, oral): 2.91 ng/mL | concentration at 6 weeks ([5]; male, oral, 50 mg/d): 2.29 ng/mL | tumor responses among the five patients ([6]; five patients of Table 3): two exhibited partial tumor responses, one has stable disease, and two showed tumor progression | dose above which toxicity begins to occur in humans ([6]; humans): 1 to 2 mg/kg/day | dose at which the anti-tumor effect occurs in humans ([6]; humans, approximately one tenth of dose effective in animals): ~1 mg/kg/day | side effects in treatment of human cancers ([6]; humans, compared to conventional therapies): mild fatigue, muscle tremor, dry mouth, dry skin, and occasional nausea | Response [6, 8]: Pro- | Side Effects [6, 8]: Xerostomia; also recorded: Nausea; also recorded: Trans- | Response [6, 9]: Pro- | Side Effects [6, 9]: Xerostomia; also recorded: Fatigue | Response [6, 10]: Stabili- | Side Effects [6, 10]: Xerostomia; also recorded: Fatigue; also recorded: Nausea | Response [6, 11]: Partial | Side Effects [6, 11]: Xerostomia; also recorded: Fatigue; also recorded: Nausea | side effects experienced during gossypol treatment ([6]; person, 20 to 50 mg/d oral): fatigue, xerostomia, tremor, and trasnminitis | clinical symptoms ([6]; person, after three weeks of treatment): improvement in abdominal pain, ascites, and pulmonary function | decrease in the size of the hepatic metastases on CT scans [6, 12]: > 50% | pulmonary metastases on CT scans [6, 12]: complete resolution

Cc1ccc(C(=O)Nc2ccc(S(=O)(=O)O)c3cc(S(=O)(=O)O)cc(S(=O)(=O)O)c23)cc1NC(=O)c1cccc(NC(=O)Nc2cccc(C(=O)Nc3cc(C(=O)Nc4ccc(S(=O)(=O)O)c5cc(S(=O)(=O)O)cc(S(=O)(=O)O)c45)ccc3C)c2)c1 [Suramin]
tumor course under treatment [7]: progressed
